Legend:
Format in all cases: cell-based, Mouse
[1] = test system: C2C12 myoblasts; experiment: C2C12 myoblast differentiation, fusion index by cytoimmunofluorescence; conditions: 5 days in differentiation medium
Method: (§1) Mouse myoblasts of the C2C12 cell line (ATCC) were seeded at a plating density of 7000 cells/cm2 in 6-well plates. They were grown in DMEM high glucose (4.5g/l) supplemented with gentamycin (50 µg/mL), amphotericin (50 µg/mL), and fetal calf serum (10%). Terminal differentiation was induced at cell confluence by lowering the medium serum concentration (0.5%).
(§2) When indicated, FuFA-F2 was added to the culture medium at the indicated concentration. For the differentiation studies, FuFA-F2 was added at the confluence at the same time as the change in media condition. Three doses of FuFA-F2 were studied at a final concentration of 1, 10, or 50 µM. Human insulin was used at a concentration of 100 nM.
Cytoimmunofluorescence myoblast differentiation was assessed by observation of morphological changes and accumulation of muscle-specific markers. After methanol fixation and three washes with PBS-gelatin (0.2%), cells were labeled with an antibody raised against Troponin T (T6277, Sigma, diluted at 1:50) (Sigma-Aldrich, Saint-Quentin Fallavier, France). Nuclei were stained with Hoechst 33258 (1 µg/mL). To assess the extent of differentiation, the fusion index (percentage of nuclei incorporated into myotubes relative to the total number of nuclei) was calculated 120 h after adding the differentiation medium. Nuclei were counted on 10 images/dish using ImageJ software. […]

[2] = test system: myogenin; experiment: Myogenin protein level by Western blot in differentiating C2C12 cells; conditions: 1, 10 and 50 µM, differentiation medium
Method: as §1, §2
(§3) Protein levels were assessed by Western blotting. Total proteins were measured using the Bio-Rad protein assay (Hercules, CA, USA) according to the manufacturer's instructions. Total proteins were lysed in RIPA buffer (20mM Tris, 150mM NaCl, 1mM EDTA, 1% NP40, pH 7.5 + complete cocktail protease inhibitors + Pierce phosphatase inhibitors tablet). 40 µg of cell extracts were loaded and blotted onto a nitrocellulose membrane. The membranes were washed, blocked with 5% nonfat milk and incubated in primary antibody overnight at 4°C. […]

[3] = test system: C2C12 myotubes; experiment: Total protein content (protein accretion) in C2C12 myotubes; conditions: whatever the dose (1, 10, 50 µM), 3 days of supplementation, vs control
Method: as §1, §2, §3

[4] = test system: mTOR (Ser2448); experiment: mTOR phosphorylation by Western blot in C2C12 myotubes
Method: as §1, §2
Protein levels were assessed by Western blotting. Total proteins were measured using the Bio-Rad protein assay (Hercules, CA, USA) according to the manufacturer's instructions. Total proteins were lysed in RIPA buffer (20mM Tris, 150mM NaCl, 1mM EDTA, 1% NP40, pH 7.5 + complete cocktail protease inhibitors + Pierce phosphatase inhibitors tablet). 40 µg of cell extracts were loaded and blotted onto a nitrocellulose membrane. The membranes were washed, blocked with 5% nonfat milk and incubated in primary antibody overnight at 4°C. The membranes were then washed in TBS-Tween (10mM Tris, 140mM NaCl, and 0.2% Tween-20), incubated with the appropriate secondary antibody coupled to horseradish peroxidase, and washed again in TBS-Tween. […] Touch Software (version 5.2.1) (Hercules, CA, USA). […]
It is shown that FuFA-F2 increased protein accretion in myotubes. Protein homeostasis is determined by the dynamic balance between protein synthesis and degradation. Protein synthesis was evaluated by measuring the phosphorylation of Akt (Ser473), mTOR (Ser2448) and 4E-BP1 (Thr37/46), which are major regulators of translation and protein synthesis. […]

[5] = test system: LC3-II/LC3-I; experiment: Autophagic flux, conversion of LC3-I to LC3-II by Western blot in C2C12 myotubes; conditions: whatever the dose
Method: as §1, §2
Protein levels were assessed by Western blotting. Total proteins were measured using the Bio-Rad protein assay (Hercules, CA, USA) according to the manufacturer's instructions. […]
AMP activated protein kinase (AMPK) is a crucial cellular energy sensor protein and is activated when intracellular ATP level decreases to regulate autophagy initiation (Hardie et al., 2012, Nat Rev Mol Cell Bio, Vol. 13 (4) : 251-262). […] The autophagy-related signaling was further evaluated by measuring the MTORC1 mediated phosphorylation […] at Ser757 which disrupts the interaction between ULK1 and AMPK. […] Therefore, the autophagic flux was assessed by measuring the conversion of LC3-I to LC3-II, through lipidation.

Compound: CCCCCc1cc(C)c(CCCCCCCCC(=O)O)o1 [FuFA-F2]
- myoblast fusion index ([1]; 50 µM, 57% for control, p<0.05): 61%
- myoblast fusion index ([1]; 1 and 10 µM (all doses except 50 µM)): no significant effects
- expression of myogenin [2]: no effect
- total protein content in C2C12 myotubes [3]: significantly increase
- mTOR phosphorylation at Ser2448 ([4]; 3-day pretreatment, 2 hours low-glucose medium, then treatment for 30 minutes, insulin alone 100 nM): significant increase
- mTOR phosphorylation ([4]; high glucose medium, 3 days, with or without FuFA-F2): no difference
- rapid effect on mTOR phosphorylation ([4]; without pretreatment, 30 min incubation after low-glucose medium): not observed
- ratio of LC3-II/LC3-I [5]: decreased

Source: EP4385508A1, “FURAN FATTY ACIDS FOR ENHANCING MUSCLE MASS” (Centre de Coopération Internationale en Recherche …, priority 2022, dated 2024)
